Laboratory results as given in paper PMC7899551, “Phase 1 study of Z-endoxifen in patients with advanced gynecologic, desmoid, and hormone receptor-positive solid tumors” (Oncotarget, 2021).
“Also recorded” adds a separate entry of the source.

Tested on: gynecologic tumors, desmoid tumors, hormone receptor-positive solid tumors
Assay: Clinical outcome (RECIST 1.1 response, cycles on study)
Type: in vivo, human
Details: for prolonged disease stabilization: desmoid
Procedure: This study enrolled patients ≥ 18 years of age with gynecological tumors, desmoid tumors, histologically-documented HR+ (ER+/PR+, ER+/PR-, or ER-/PR+) breast cancer, or other solid tumors that were ER+ or PR+ by immunohistochemistry (any positive expression). […] All other patients must have progressed on at least one line of standard-of-care therapy.
Eye examinations were performed at baseline, every six months while on study, and if clinically indicated. CT scans were performed at baseline, and tumor response was assessed every 2 cycles (8 weeks; every 16 weeks for patients on study for more than 12 months) based on the Response Evaluation Criteria in Solid Tumors (RECIST) version 1.1 [39]. A confirmatory scan was performed after at least 4 weeks to confirm objective response.

[1] = patient 7, fallopian tube cancer

CC/C(=C(\c1ccc(O)cc1)c1ccc(OCCNC)cc1)c1ccccc1 [Z-endoxifen]
mean number of cycles completed (3 ER+/PR- breast cancer patients): 3.0 ± 2.6 cycles
mean number of cycles completed (6 ER+/PR+ breast cancer patients): 6.7 ± 4.4 cycles
disease stabilizations of ≥ 6 cycles (20 evaluable patients with gynecologic tumors (patients 20, 30, 31)): 3 patients
partial responses (34 evaluable patients): Three patients had partial responses; also recorded: Three patients in this study experienced partial responses
patients with stable disease ≥ 6 cycles (34 evaluable patients): 8 patients
treatment cycles on study, average (34 evaluable patients): 7.2 cycles
treatment cycles on study, median (34 evaluable patients): 4 cycles
treatment cycles on study, range (34 evaluable patients): 1–62 cycles
Clinical Benefit (partial response or stable disease for at least 6 cycles) (Breast cancer (n = 9)): 4 patients
CBR (partial response or stable disease ≥ 6 cycles) (DL1 to DL5, 20 to 140 mg daily, 3/16 patients): 18.8%
CBR (partial response or stable disease ≥ 6 cycles) (DL6 to DL8, 200 to 360 mg daily, 8/18 patients): 44.4%
Clinical Benefit (partial response or stable disease for at least 6 cycles) (Desmoid (n = 4)): 3 patients
mean cycles completed on study (ER+ breast cancer): 5.1 ± 4.4 cycles
mean cycles on study (ER+ ovarian cancer, 4 patients): 4.0 ± 4.0 cycles
Clinical Benefit (partial response or stable disease for at least 6 cycles) (Fallopian tube cancer (n = 2)): 1 patients
Clinical Benefit (partial response or stable disease for at least 6 cycles) (Granulosa cell ovarian (n = 2)): 0 patients
Clinical Benefit (partial response or stable disease for at least 6 cycles) (Ovarian cancer (n = 9)): 2 patients
Clinical Benefit (partial response or stable disease for at least 6 cycles) (Total of Supplementary Table 1 (endometrial patient 31 not included)): 10 patients
overall CBR (partial response or stable disease ≥ 6 cycles) (all dose levels): 32.5%
CBR (hormone receptor-positive breast cancer, 4/9 patients): 44%
clinical response [1]: partial response
cycles on study [1]: 14 cycles
clinical response (patient 23, desmoid fibromatosis, prior progression on tamoxifen): partial response
prolonged disease stabilization (patient 28 (DL7)): 11 cycles
stable disease duration (patient 31, endometrial cancer): 7 cycles
clinical response (patient 33 (DL8), breast cancer): partial response
prolonged disease stabilization (patient 35 (DL8), prior progression on tamoxifen): 24 cycles
stable disease duration (patients 3, 10, and 21 (DL1, DL3, DL6), breast cancer): ≥ 6 cycles
CBR (patients with desmoid tumors, 3/4 patients): 75%
CBR (patients with gynecologic malignancies, 4/20 patients): 20%
mean cycles on study (undetermined ER status ovarian cancer, n = 5): 2.0 ± 1.2 cycles
